# According to patent US10174037B2, “Dihydropyrazolopyrimidinone compounds as PDE2 inhibitors” (Merck Sharp & Dohme Corp., priority 2015, dated 2019):
# How the values were obtained:
# human PDE2A1 = human PDE2A1 (Homo sapiens (Human), UniProt O00408); assay: PDE selectivity IMAP FP assay, human PDE2A1; type: biochemical; conditions: Human PDE2; Lab B; read-out: Human PDE2 Ki (nM) Lab B
# Method in brief: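 IMAP fluorescence polarization assay; PDE2 substrate 50 nM FAM-cAMP containing 1000 nM cGMP, enzyme diluted for 20% substrate conversion, in 10 mM Tris HCl pH 7.2, 10 mM MgCl2, 1 mM DTT. Reaction 60 min at room temperature, stopped with IMAP binding solution; polarization read after 1 h. Ki reported.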
# Rhesus PDE2A3 = Rhesus PDE2A3 (Macaca mulatta, UniProt B3VTJ2); assay: PDE2 fluorescence polarization (IMAP FP) assay, rhesus PDE2A3; type: biochemical, rhesus macaque; conditions: Lab B, read-out: Rhesus PDE2 Ki (nM) Lab B
# Chain of Rhesus PDE2A3 (B3VTJ2 1-941): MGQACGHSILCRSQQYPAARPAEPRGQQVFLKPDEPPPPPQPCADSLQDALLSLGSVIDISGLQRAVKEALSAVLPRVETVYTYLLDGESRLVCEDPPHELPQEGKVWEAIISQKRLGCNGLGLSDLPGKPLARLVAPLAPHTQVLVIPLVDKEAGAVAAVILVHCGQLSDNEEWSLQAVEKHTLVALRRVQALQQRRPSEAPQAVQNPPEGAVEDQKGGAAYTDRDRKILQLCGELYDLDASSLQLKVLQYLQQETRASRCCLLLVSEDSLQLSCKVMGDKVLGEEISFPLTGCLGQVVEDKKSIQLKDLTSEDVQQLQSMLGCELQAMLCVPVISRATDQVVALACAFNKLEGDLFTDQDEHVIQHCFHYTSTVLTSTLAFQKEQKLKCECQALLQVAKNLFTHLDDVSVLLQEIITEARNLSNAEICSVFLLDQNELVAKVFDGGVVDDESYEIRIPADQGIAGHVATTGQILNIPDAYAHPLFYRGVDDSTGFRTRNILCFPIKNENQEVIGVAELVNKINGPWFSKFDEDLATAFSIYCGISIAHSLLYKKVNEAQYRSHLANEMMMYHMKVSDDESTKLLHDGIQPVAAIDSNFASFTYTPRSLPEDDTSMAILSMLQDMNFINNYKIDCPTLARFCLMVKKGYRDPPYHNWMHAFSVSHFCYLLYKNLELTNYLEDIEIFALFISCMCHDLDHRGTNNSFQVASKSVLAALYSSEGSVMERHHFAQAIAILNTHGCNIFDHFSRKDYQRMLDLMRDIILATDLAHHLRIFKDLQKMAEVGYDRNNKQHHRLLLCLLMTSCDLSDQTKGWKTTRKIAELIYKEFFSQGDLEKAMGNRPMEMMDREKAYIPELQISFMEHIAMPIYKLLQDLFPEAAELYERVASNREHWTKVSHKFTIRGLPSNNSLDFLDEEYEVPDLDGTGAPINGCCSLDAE
# Chain of human PDE2A1 (O00408 other isoform, or with tags, fused parts or gaps): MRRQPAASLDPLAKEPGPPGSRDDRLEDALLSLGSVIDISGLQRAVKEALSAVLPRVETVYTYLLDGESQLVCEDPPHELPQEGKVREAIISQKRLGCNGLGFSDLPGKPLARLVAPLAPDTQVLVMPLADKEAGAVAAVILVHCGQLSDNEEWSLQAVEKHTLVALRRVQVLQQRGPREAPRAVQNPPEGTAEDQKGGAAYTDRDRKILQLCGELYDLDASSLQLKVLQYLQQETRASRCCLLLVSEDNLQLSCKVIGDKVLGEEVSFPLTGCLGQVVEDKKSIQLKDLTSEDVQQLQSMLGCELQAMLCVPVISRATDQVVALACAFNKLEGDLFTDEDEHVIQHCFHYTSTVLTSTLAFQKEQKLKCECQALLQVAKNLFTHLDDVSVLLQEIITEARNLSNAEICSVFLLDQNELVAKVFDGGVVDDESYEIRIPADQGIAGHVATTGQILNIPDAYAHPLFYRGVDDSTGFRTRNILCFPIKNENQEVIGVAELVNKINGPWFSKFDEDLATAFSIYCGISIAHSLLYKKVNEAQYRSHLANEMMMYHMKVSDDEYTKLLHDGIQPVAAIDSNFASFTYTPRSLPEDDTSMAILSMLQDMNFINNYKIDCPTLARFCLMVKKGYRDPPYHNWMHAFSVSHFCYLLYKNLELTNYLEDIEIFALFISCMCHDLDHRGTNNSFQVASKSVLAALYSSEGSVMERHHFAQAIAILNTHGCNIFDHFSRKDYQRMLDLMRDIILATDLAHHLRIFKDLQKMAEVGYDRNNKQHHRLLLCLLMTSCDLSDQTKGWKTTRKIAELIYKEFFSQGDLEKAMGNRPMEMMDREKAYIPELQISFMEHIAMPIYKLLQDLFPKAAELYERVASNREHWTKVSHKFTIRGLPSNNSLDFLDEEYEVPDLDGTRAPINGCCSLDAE
SMILES,Ki (human PDE2A1) [nM],Ki (Rhesus PDE2A3) [nM]
"CC(c1ccc(C(C)(F)F)cc1)n1nc(CO)c2c(=O)[nH]c(N(C)C)nc21 (single isomer, unassigned) [Example 103, (S)- or (R)-1-(1-(4-(1,1-Difluoroethyl)phenyl)ethyl)-6-(dimethylamino)-3-(hydroxymethyl)-1H-pyrazolo[3,4-d]pyrimidin-4(5H)-one]",0.28,0.3
"CC(c1ccc(C(F)F)c(F)c1)n1nc(CO)c2c(=O)[nH]c(N(C)C)nc21 (single isomer, unassigned) [Example 105, (S)- or (R)-1-(1-(4-(Difluoromethyl)-3-fluorophenyl)ethyl)-6-(dimethylamino)-3-(hydroxymethyl)-1H-pyrazolo[3,4-d]pyrimidin-4(5H)-one]",1.1,1.6
"CC(c1ccc(C(C)(F)F)c(F)c1)n1nc(CO)c2c(=O)[nH]c(N(C)C)nc21 (single isomer, unassigned) [Example 106, (R)- or (S)-1-(1-(4-(1,1-Difluoroethyl)-3-fluorophenyl)ethyl)-6-(dimethylamino)-3-(hydroxymethyl)-1H-pyrazolo[3,4-d]pyrimidin-4(5H)-one]",3.6,6.2
"CC(c1ccc(C(C)(F)F)c(F)c1)n1nc(CO)c2c(=O)[nH]c(N(C)C)nc21 (single isomer, unassigned) [Example 107, (S)- or (R)-1-(1-(4-(1,1-Difluoroethyl)-3-fluorophenyl)ethyl)-6-(dimethylamino)-3-(hydroxymethyl)-1H-pyrazolo[3,4-d]pyrimidin-4(5H)-one]",0.12,0.12
"CC(c1ccc(C(C)(F)F)cc1F)n1nc(CO)c2c(=O)[nH]c(N(C)C)nc21 (single isomer, unassigned) [Example 108, (R)- or (S)-1-(1-(4-(1,1-DiHuoroethyl)-2-fluoroplienyl)ethyl)-6-(dimethylamino)-3-(hydroxymethyl)-1H-pyrazolo[3,4-d]pyrimidin-4(5H)-one]",0.23,0.18
"CCC(c1ccc(C(C)(F)F)cc1F)n1nc(CO)c2c(=O)[nH]c(N(C)C)nc21 (single isomer, unassigned) [Example 111, (S)- or (R)-1-(1-(4-(1,1-Difluoroethyl)-2-fluorophenyl)propyl)-6-(dimethylamino)-3-(hydroxymethyl)-1H-pyrazolo[3,4-d]pyrimidin-4(5H)-one]",0.12,0.14
"CCC(c1ccc(C(C)(F)F)c(F)c1)n1nc(CO)c2c(=O)[nH]c(N(C)C)nc21 (single isomer, unassigned) [Example 112, (R)- or (S)-1-(1-(4-(1,1-Difluoroethyl)-3-fluorophenyl)propyl)-6-(dimethylamino)-3-(hydroxymethyl)-1H-pyrazolo[3,4-d]pyrimidin-4(5H)-one]",0.84,1.1
"CCC(c1ccc(C(C)(F)F)c(F)c1)n1nc(CO)c2c(=O)[nH]c(N(C)C)nc21 (single isomer, unassigned) [Example 113]",0.057,0.055
"CC(C)C(c1ccc(C(F)F)c(F)c1)n1nc(CO)c2c(=O)[nH]c(N(C)C)nc21 (single isomer, unassigned) [Example 114]",0.79,0.71
"CC(C)C(c1ccc(C(C)(F)F)c(F)c1)n1nc(CO)c2c(=O)[nH]c(N(C)C)nc21 (single isomer, unassigned) [Example 116, (R)- or (S)-1-(1-(4-(1,1-Difluoroethyl)-3-fluorophenyl)-2-methylpropyl)-6-(dimethylamino)-3-(hydroxymethyl)-1H-pyrazolo[3,4-d]pyrimidin-4(5H)-one]",0.13,0.16
"CC(C)C(c1ccc(C(C)(F)F)c(F)c1)n1nc(CO)c2c(=O)[nH]c(N(C)C)nc21 (single isomer, unassigned) [Example 117, (R)- or (S)-1-(1-(4-(1,1-Difluoroethyl)-3-fluorophenyl)-2-methylpropyl)-6-(dimethylamino)-3-(hydroxymethyl)-1H-pyrazolo[3,4-d]pyrimidin-4(5H)-one]",0.017,0.025
"CC(C)C(c1ccc(C(C)(F)F)cc1F)n1nc(CO)c2c(=O)[nH]c(N(C)C)nc21 (single isomer, unassigned) [Example 118, (R)- or (S)-1-(1-(4-(1,1-Difluoroethyl)-2-fluorophenyl)-2-methylpropyl)-6-(dimethylamino)-3-(hydroxymethyl)-1H-pyrazolo[3,4-d]pyrimidin-4(5H)-one]",0.42,0.44
"CC(C)C(c1ccc(C(C)(F)F)cc1F)n1nc(CO)c2c(=O)[nH]c(N(C)C)nc21 (single isomer, unassigned) [Example 119, (S)- or (R)-(1-(4-(1,1-Difluoroethyl)-2-fluorophenyl)-2-methylpropyl)-6-(dimethylamino)-3-(hydroxymethyl)-1H-pyrazolo[3,4-d]pyrimidin-4(5H)-one]",0.024,0.036
"CC(C)C(c1ccc(OC(F)F)cc1)n1nc(CO)c2c(=O)[nH]c(N(C)C)nc21 (single isomer, unassigned) [Example 120]",0.21,0.28
"CC(C)C(c1ccc(OC(F)F)cc1)n1nc(CO)c2c(=O)[nH]c(N(C)C)nc21 (single isomer, unassigned) [Example 121]",0.34,0.31
"CN(C)c1nc2c(c(CO)nn2C(c2ccc(OC(F)F)c(F)c2)C2CC2)c(=O)[nH]1 (single isomer, unassigned) [Example 122, (R)- or (S)-1-(Cyclopropyl(4-(difluoromethoxy)-3-fluorophenyl)methyl)-6-(dimethylamino)-3-(hydroxymethyl)-1H-pyrazolo[3,4-d]pyrimidin-4(5H)-one]",0.3,0.37
"CN(C)c1nc2c(c(CO)nn2C(c2ccc(OC(F)F)c(F)c2)C2CC2)c(=O)[nH]1 (single isomer, unassigned) [Example 123, (S)- or (R)-1-(Cyclopropyl(4-(difluoromethoxy)-3-fluorophenyl)methyl)-6-(dimethylamino)-3-(hydroxymethyl)-1H-pyrazolo[3,4-d]pyrimidin-4(5H)-one]",0.6,0.61
"CCC(c1ccc(OC(F)F)cc1)n1nc(CO)c2c(=O)[nH]c(N(C)C)nc21 (single isomer, unassigned) [Example 124, (R)- or (S)-1-(1-(4-(Difluoromethoxy)phenyl)propyl)-6-(dimethylamino)-3-(hydroxymethyl)-1H-pyrazolo[3,4-d]pyrimidin-4(5H)-one]",0.73,0.7
"CCC(c1ccc(OC(F)F)c(F)c1)n1nc(CO)c2c(=O)[nH]c(N(C)C)nc21 (single isomer, unassigned) [Example 126, (R)- or (S)-1-(1-(4-(Difluoromethoxy)-3-fluorophenyl)propyl)-6-(dimethylamino)-3-(hydroxymethyl)-1H-pyrazolo[3,4-d]pyrimidin-4(5H)-one]",0.3,0.45
"CCC(c1ccc(OC(F)F)c(F)c1)n1nc(CO)c2c(=O)[nH]c(N(C)C)nc21 (single isomer, unassigned) [Example 127, (S)- or (R)-1-(1-(4-(Difluoromethoxy)-3-fluorophenyl)propyl)-6-(dimethylamino)-3-(hydroxymethyl)-1H-pyrazolo[3,4-d]pyrimidin-4(5H)-one]",0.81,1.4
"CN(C)c1nc2c(c(CO)nn2C(c2ccc(OC(F)F)cc2)C2CC2)c(=O)[nH]1 (single isomer, unassigned) [Example 128, (R)- or (S)-1-(Cyclopropyl(4-(difluoromethoxy)phenyl)methyl)-6-(dimethylamino)-3-(hydroxymethyl)-1H-pyrazolo[3,4-d]pyrimidin-4(5H)-one]",0.5,0.55
"CN(C)c1nc2c(c(CO)nn2C(c2ccc(OC(F)F)cc2)C2CC2)c(=O)[nH]1 (single isomer, unassigned) [Example 129, (S)- or (R)-(Cyclopropyl(4-(difluoromethoxy)phenyl)methyl)-6-(dimethylamino)-3-(hydroxymethyl)-1H-pyrazolo[3,4-d]pyrimidin-4(5H)-one]",0.55,1
"CCC(c1ccc(C(F)(F)F)cc1F)n1nc(CO)c2c(=O)[nH]c(N(C)C)nc21 (single isomer, unassigned) [Example 130, (R)- or (S)-6-(Dimethylamino)-1-(1-(2-fluoro-4-(trifluoromethyl)phenyl)propyl)-3-(hydroxymethyl)-1H-pyrazolo[3,4-d]pyrimidin-4(5H)-one]",0.071,0.12
"CC(C)C(c1ccc(C(F)(F)F)cc1F)n1nc(CO)c2c(=O)[nH]c(N(C)C)nc21 (single isomer, unassigned) [Example 132, (R)- or (S)-6-(Dimethylamino)-1-(1-(2-fluoro-4-(trifluoromethyl)phenyl)-2-methylpropyl)-3-(hydroxymethyl)-1H-pyrazolo[3,4-d]pyrimidin-4(5H)-one]",0.04,0.059
"CC(C)C(c1ccc(C(F)(F)F)cc1F)n1nc(CO)c2c(=O)[nH]c(N(C)C)nc21 (single isomer, unassigned) [Example 133, (S)- or (R)-6-(Dimethylamino)-1-(1-(2-fluoro-4-(trifluoromethyl)phenyl)-2-methylpropyl)-3-(hydroxymethyl)-1H-pyrazolo[3,4-d]pyrimidin-4(5H)-one]",0.45,0.6
"CN(C)c1nc2c(c(CO)nn2C(c2ccc(C(F)(F)F)cc2F)C2CC2)c(=O)[nH]1 (single isomer, unassigned) [Example 134, (R)- or (S)-1-(Cyclopropyl(2-fluoro-4-(trifluoromethyl)phenyl)methyl)-6-(dimethylamino)-3-(hydroxymethyl)-1H-pyrazolo[3,4-d]pyrimidin-4(5H)-one]",0.047,0.05
